Measured values reported in the supplement of paper PMC11061612.

What was measured:
[1] = compound: C1CC(C1)(C(=O)[O-])C(=O)[O-].N.N.[Pt+2] [Carboplatin]; conditions: max 10 µM
Outline: (§1)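 Plates with 1536 wells received cancer cell lines in 7.5 μl of DMEM/F12 or RPMI containing 10% FBS. After 24 hours at 37°C and 5% CO2, cells were dosed for 72 hours with final DMSO typically 0.2%, and viability was read by CellTiter-Glo 2.0 luminescence scaled between blank-well and DMSO-well means. The single-agent IC50 was taken from a logistic fit of the dose responses made with a non-linear mixed effects model, that logistic curve having two parameters.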

[2] = compound: C1CN(CCC1(C(=O)N[C@@H](CCO)C2=CC=C(C=C2)Cl)N)C3=NC=NC4=C3C=CN4 [AZD5363]; conditions: max 10 µM
Outline: as §1

[3] = compound: C=CCn1c(=O)c2cnc(Nc3ccc(N4CCN(C)CC4)cc3)nc2n1-c1cccc(C(C)(C)O)n1 [AZD1775]; conditions: max 3 µM
Outline: as §1

[4] = compound: CC(=O)Nc1cccc(-n2c(=O)n(C3CC3)c(=O)c3c(Nc4ccc(I)cc4F)n(C)c(=O)c(C)c32)c1 [Trametinib]; conditions: max 1 µM
Outline: as §1

[5] = compound: CC(=O)O[C@H]1C(=O)[C@@]2(C)[C@H]([C@H](OC(=O)c3ccccc3)[C@]3(O)C[C@H](OC(=O)[C@H](O)[C@@H](NC(=O)c4ccccc4)c4ccccc4)C(C)=C1C3(C)C)[C@]1(OC(C)=O)CO[C@@H]1C[C@@H]2O [Paclitaxel]; conditions: max 3 µM
Outline: as §1

[6] = compound: CC(=O)c1c(C)c2cnc(Nc3ccc(N4CCNCC4)cn3)nc2n(C2CCCC2)c1=O [Palbociclib]; conditions: max 10 µM
Outline: as §1

[7] = compound: CC(C)n1c(=O)n(C)c2cnc3cc(F)c(-c4ccc(OCCCN5CCCCC5)nc4)cc3c21 [AZD1390]; conditions: max 0.3 µM
Outline: as §1

[8] = compound: CC1(C)CCC(CN2CCN(c3ccc(C(=O)NS(=O)(=O)c4ccc(NCC5CCOCC5)c([N+](=O)[O-])c4)c(Oc4cnc5[nH]ccc5c4)c3)CC2)=C(c2ccc(Cl)cc2)C1 [Venetoclax]; conditions: max 1 µM
Outline: as §1

[9] = compound: CC1=C(C(=CC=C1)Cl)NC(=O)C2=CN=C(S2)NC3=CC(=NC(=N3)C)N4CCN(CC4)CCO [Dasatinib]; conditions: max 2 µM
Outline: as §1

[10] = compound: CC1=CN2[C@@H](C1)C=NC3=CC(=C(C=C3C2=O)OC)OCCCCCOC4=C(C=C5C(=C4)N=C[C@@H]6CC(=CN6C5=O)C)OC [SG3199]; conditions: max 0.001 µM
Outline: as §1

[11] = compound: CCN(CCO)CCCOc1ccc2c(Nc3cc(CC(=O)Nc4cccc(F)c4)[nH]n3)ncnc2c1 [AZD2811]; conditions: max 1 µM
Outline: as §1

[12] = compound: CCc1c2c(nc3ccc(O)cc13)-c1cc3c(c(=O)n1C2)COC(=O)[C@]3(O)CC [SN-38]; conditions: max 0.3 µM
Outline: as §1

[13] = compound: CN(C)CCCOc1ccc(-c2ccc3ncc4c(c3c2)n(C2CCOCC2)c(=O)n4C)cn1 [AZD0156]; conditions: max 3 µM
Outline: as §1

[14] = compound: CN(CC[C@H](CSC1=CC=CC=C1)NC2=C(C=C(C=C2)S(=O)(=O)NC(=O)C3=CC=C(C=C3)N4CCC(CC4)[C@H](C5=CC=CC=C5C6=CC=C(C=C6)Cl)O)S(=O)(=O)C(F)(F)F)CCO [AZD4320]; conditions: max 1 µM
Outline: as §1

[15] = compound: COc1cc(Nc2ncc3c(n2)-c2ccc(Cl)cc2C(c2c(F)cccc2OC)=NC3)ccc1C(=O)O [Alisertib]; conditions: max 10 µM
Outline: as §1

[16] = compound: COc1cc([C@@H]2c3cc4c(cc3[C@@H](O[C@@H]3O[C@@H]5CO[C@@H](C)O[C@H]5[C@H](O)[C@H]3O)[C@H]3COC(=O)[C@H]23)OCO4)cc(OC)c1O [Etoposide]; conditions: max 10 µM
Outline: as §1

[17] = compound: COc1cc2ncnc(Nc3ccc(F)c(Cl)c3)c2cc1OCCCN1CCOCC1 [Gefitinib]; conditions: max 10 µM
Outline: as §1

[18] = compound: COc1cccc(OCCCN)c1-c1cc(Nc2cnc(C#N)cn2)n[nH]1 [Prexasertib]; conditions: max 1 µM
Outline: as §1

[19] = compound: COc1cccc2c1C(=O)c1c(O)c3c(c(O)c1C2=O)C[C@@](O)(C(=O)CO)C[C@@H]3O[C@H]1C[C@H](N)[C@H](O)[C@H](C)O1 [Doxorubicin]; conditions: max 1 µM
Outline: as §1

[20] = compound: COc1nnc2ccc(N3CCC(c4ccc(OCCN5CCN(C)C(=O)[C@H]5C)cc4)CC3)nn12 [AZD5153]; conditions: max 1 µM
Outline: as §1

[21] = compound: CS(=O)(=O)CCNCc1ccc(-c2ccc3ncnc(Nc4ccc(OCc5cccc(F)c5)c(Cl)c4)c3c2)o1 [Lapatinib]; conditions: max 10 µM
Outline: as §1

[22] = compound: C[C@@H](Nc1cc(F)cc(F)c1)c1cc(C(=O)N(C)C)cc2c(=O)cc(N3CCOCC3)oc12 [AZD8186]; conditions: max 10 µM
Outline: as §1

[23] = compound: C[C@@H](Oc1cc(-c2cnn(C3CCNCC3)c2)cnc1N)c1c(Cl)ccc(F)c1Cl [Crizotinib]; conditions: max 10 µM
Outline: as §1

[24] = compound: C[C@@H](c1ccc2nccn2c1)n1nnc2ncc(-c3cnn(C)c3)nc21 [Savolitinib]; conditions: max 1 µM
Outline: as §1

[25] = compound: C[C@@H]1COCCN1C2=NC(=NC(=C2)C3(CC3)[S@](=N)(=O)C)C4=C5C=CNC5=NC=C4 [AZD6738]; conditions: max 10 µM
Outline: as §1

[26] = compound: Cc1c2c(nn1C)CSCc1cc(n(C)n1)CSc1cc(c3ccccc3c1)OCCCc1c(C(=O)O)n(C)c3c-2c(Cl)ccc13 [AZD5991]; conditions: max 1 µM
Outline: as §1

[27] = compound: Cc1cc2ncnn2cc1Nc1ncc2c(n1)n(C1CCOCC1)c(=O)n2C [AZD7648]; conditions: max 10 µM
Outline: as §1

[28] = compound: Cc1nc(-c2cn3c(n2)-c2ccc(-c4cnn(C(C)(C)C(N)=O)c4)cc2OCC3)n(C(C)C)n1 [Taselisib]; conditions: max 10 µM
Outline: as §1

[29] = compound: Cn1cnc2c(F)c(Nc3ccc(Br)cc3Cl)c(C(=O)NOCCO)cc21 [Selumetinib]; conditions: max 10 µM
Outline: as §1

[30] = compound: N#Cc1cnc(Nc2cc(NC[C@H]3CNCCO3)c(C(F)(F)F)cn2)cn1 [SRA737]; conditions: max 10 µM
Outline: as §1

[31] = compound: NC1(c2ccc(-c3nc4ccn5c(=O)[nH]nc5c4cc3-c3ccccc3)cc2)CCC1 [MK-2206]; conditions: max 10 µM
Outline: as §1

[32] = compound: Nc1ccn([C@@H]2O[C@H](CO)[C@@H](O)C2(F)F)c(=O)n1 [Gemcitabine]; conditions: max 0.3 µM
Outline: as §1

[33] = compound: O=C(Nc1ccc2[nH]nc(-c3ccncc3)c2c1)[C@@H]1CCN(CC(=O)N2CCN(c3ccc(-c4ncccn4)cc3)CC2)C1; conditions: max 5 µM
Outline: as §1

[34] = compound: O=C(c1cc(Cc2n[nH]c(=O)c3ccccc23)ccc1F)N1CCN(C(=O)C2CC2)CC1 [Olaparib]; conditions: max 10 µM
Outline: as §1

[35] = compound: O=c1[nH]cc(F)c(=O)[nH]1 [5-Fluorouracil]; conditions: max 20 µM
Outline: as §1

| Cell Line | IC50, cell viability 72 h [1] [nM] | IC50, cell viability 72 h [2] [nM] | IC50, cell viability 72 h [3] [nM] | IC50, cell viability 72 h [4] [nM] | IC50, cell viability 72 h [5] [nM] | IC50, cell viability 72 h [6] [nM] | IC50, cell viability 72 h [7] [nM] | IC50, cell viability 72 h [8] [nM] | IC50, cell viability 72 h [9] [nM] | IC50, cell viability 72 h [10] [nM] | IC50, cell viability 72 h [11] [nM] | IC50, cell viability 72 h [12] [nM] | IC50, cell viability 72 h [13] [nM] | IC50, cell viability 72 h [14] [nM] | IC50, cell viability 72 h [15] [nM] | IC50, cell viability 72 h [16] [nM] | IC50, cell viability 72 h [17] [nM] | IC50, cell viability 72 h [18] [nM] | IC50, cell viability 72 h [19] [nM] | IC50, cell viability 72 h [20] [nM] | IC50, cell viability 72 h [21] [nM] | IC50, cell viability 72 h [22] [nM] | IC50, cell viability 72 h [23] [nM] | IC50, cell viability 72 h [24] [nM] | IC50, cell viability 72 h [25] [nM] | IC50, cell viability 72 h [26] [nM] | IC50, cell viability 72 h [27] [nM] | IC50, cell viability 72 h [28] [nM] | IC50, cell viability 72 h [29] [nM] | IC50, cell viability 72 h [30] [nM] | IC50, cell viability 72 h [31] [nM] | IC50, cell viability 72 h [32] [nM] | IC50, cell viability 72 h [33] [nM] | IC50, cell viability 72 h [34] [nM] | IC50, cell viability 72 h [35] [nM] |
| --- | --- | --- | --- | --- | --- | --- | --- | --- | --- | --- | --- | --- | --- | --- | --- | --- | --- | --- | --- | --- | --- | --- | --- | --- | --- | --- | --- | --- | --- | --- | --- | --- | --- | --- | --- |
| SK-CO-1 (Colorectal Carcinoma) | > 10000 | > 10000 | 1240 | 5.27 | 4.07 | > 10000 | > 300 | > 1000 | > 2000 | > 1 | 383 | 5.9 | > 3000 | 700 | 3130 | 2140 | > 10000 | 248 | 185 | > 1000 | > 10000 | 9810 | 1800 | > 1000 | 6580 | > 1000 | > 10000 | 1220 | 1120 | > 10000 | > 10000 | 9.48 | 85.6 | > 10000 | > 20000 |
| SK-N-SH (Neuroblastoma) | > 10000 | > 10000 | 1440 | > 1000 | 77.4 | > 10000 | > 300 | > 1000 | > 2000 | > 1 | > 1000 | 2.92 | > 3000 | 794 | 59.3 | 667 | > 10000 | 26.5 | 66.9 | > 1000 | > 10000 | > 10000 | 2410 | > 1000 | 2260 | > 1000 | > 10000 | 1520 | > 10000 | > 10000 | > 10000 | 58.5 | > 5000 | > 10000 | > 20000 |
| SKG-IIIa (Cervical Carcinoma) | > 10000 | > 10000 | > 3000 | > 1000 | 854 | > 10000 | > 300 | > 1000 | > 2000 | > 1 | > 1000 | > 300 | > 3000 | > 1000 | > 10000 | > 10000 | > 10000 | > 1000 | > 1000 | > 1000 | > 10000 | > 10000 | > 10000 | > 1000 | > 10000 | > 1000 | > 10000 | > 10000 | > 10000 | > 10000 | > 10000 | > 300 | > 5000 | > 10000 | > 20000 |
| SNU-423 (Hepatocellular Carcinoma) | > 10000 | > 10000 | 2150 | > 1000 | 124 | > 10000 | > 300 | > 1000 | > 2000 | > 1 | > 1000 | > 300 | > 3000 | > 1000 | > 10000 | > 10000 | > 10000 | 166 | > 1000 | > 1000 | > 10000 | > 10000 | > 10000 | > 1000 | > 10000 | > 1000 | > 10000 | > 10000 | > 10000 | > 10000 | > 10000 | > 300 | > 5000 | > 10000 | > 20000 |
| T84 (Colorectal Carcinoma) | > 10000 | > 10000 | 1310 | 804 | 548 | > 10000 | > 300 | > 1000 | > 2000 | > 1 | > 1000 | 131 | > 3000 | > 1000 | > 10000 | > 10000 | > 10000 | 89.7 | > 1000 | > 1000 | > 10000 | > 10000 | > 10000 | > 1000 | 6780 | > 1000 | > 10000 | 4660 | > 10000 | 4610 | > 10000 | 276 | > 5000 | > 10000 | > 20000 |
| ZR-75-30 (Breast Carcinoma) | > 10000 | > 10000 | > 3000 | > 1000 | > 3000 | > 10000 | > 300 | > 1000 | > 2000 | > 1 | > 1000 | > 300 | > 3000 | > 1000 | > 10000 | > 10000 | > 10000 | > 1000 | > 1000 | > 1000 | 869 | > 10000 | > 10000 | > 1000 | > 10000 | > 1000 | > 10000 | 9520 | > 10000 | > 10000 | > 10000 | > 300 | > 5000 | > 10000 | > 20000 |
